Read-outs that look alike come from different tables or passages of the source.
Columns and labels:
[1] = system: HOS CD4+ osteosarcoma cells; test: Cytostatic assay, HOS CD4+; type: cell-based; conditions: Homo sapiens; Table 3
Method: (§1) To each well of a 96-well microtiter plate were added 5-7.5×10^4 cells and a given amount of the test compound. The cells were allowed to proliferate for 48 h to 96 h (depending on the nature of the cell line) at 37° C. in a humidified CO2-controlled atmosphere. At the end of the incubation period, the cells were counted in a Coulter Counter (Coulter Electronics Ltd, Harpenden Herts, United Kingdom).

[2] = system: 293T embryonic kidney cells; test: Cytostatic assay, 293T; type: cell-based; conditions: Homo sapiens, HEK-293T; Table 3
Outline: (§2)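 Test compound was added to wells holding 5-7.5×10^4 cells. After line-specific growth periods of 48 h to 96 h at 37° C in a moist atmosphere with regulated CO2, the number of cells was recorded by Coulter counting.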

[3] = system: MCF-7 mammary carcinoma cells; test: Cytostatic assay, MCF-7; type: cell-based; conditions: Homo sapiens, MCF7; Table 3
Outline: as §2

[4] = system: DNA synthesis in Raji cells; test: Antimetabolic activity assay, [CH3-3H]dThd incorporation (DNA synthesis), Raji; type: cell-based; conditions: Homo sapiens, incorporation into TCA-insoluble material
Method: [The procedure below names another cell line; the source lists this cell line under the same test.] (§3) Radiolabeled precursors of DNA synthesis ([^3H-methyl]dThd), RNA synthesis ([5-^3H]Urd), and protein synthesis ([4,5-^3H]leu) were added to 10^5 CEM cell cultures in the 200 μl-wells of a microtiter plate at 1 μCi for each precursor in the presence of varying concentrations of the test compounds (5-fold dilution series). The cells were allowed to proliferate for 20 hrs at 37° C. in a humidified, CO2-controlled atmosphere. At the end of the incubation period, the contents of the wells were brought onto 25-mm glass fiber filters and further processed for measurement of acid-insoluble radioactivity.

[5] = system: OST TK- osteosarcoma cells; test: Cytostatic assay, OST TK-; type: cell-based; conditions: Homo sapiens; Table 3
Outline: as §2

[6] = system: Daudi, human B-lymphoma cells; test: Cytostatic assay, Daudi; type: cell-based; conditions: Table 2
Method: as §1

[7] = system: RNA synthesis in CEM cells; test: Antimetabolic activity assay, [5-3H]uridine incorporation (RNA synthesis), CEM; type: cell-based; conditions: Homo sapiens, CCRF-CEM, incorporation into TCA-insoluble material
Method: as §3

Molt4/C8 cells = test: Cytostatic assay, Molt4/C8; type: cell-based; conditions: Table 2
Outline: as §2

[8] = system: protein synthesis in Raji cells; test: Antimetabolic activity assay, [4,5-3H]leucine incorporation (protein synthesis), Raji; type: cell-based; conditions: Homo sapiens, incorporation into TCA-insoluble material
Method: [The procedure below names another cell line; the source lists this cell line under the same test.] as §3

[9] = system: HT29 colorectal carcinoma cells; test: Cytostatic assay, HT29; type: cell-based; conditions: Homo sapiens, HT-29; Table 3
Outline: as §2

HepG2C3A hepatoma cells = test: Cytostatic assay, HepG2C3A; type: cell-based; conditions: Homo sapiens, HepG2/C3A; Table 4
Outline: as §2

[10] = system: U937, human monocytic cells; test: Cytostatic assay, U937; type: cell-based; conditions: U-937, Table 2
Outline: as §2

MT-2 cells = test: Cytostatic assay, MT-2; type: cell-based; conditions: Homo sapiens, MT2; Table 2
Outline: as §2

CEM cells = test: Cytostatic assay, CEM; type: cell-based; conditions: Homo sapiens, CCRF-CEM
Outline: as §2

[11] = system: FM3A mammary carcinoma cells; test: Cytostatic assay, FM3A; type: cell-based, murine; conditions: Mus musculus, Table 3
Outline: as §2

[12] = system: 22Rv1 (UZ) prostate cancer cells; test: Cytostatic assay, 22Rv1 (UZ); type: cell-based; conditions: Homo sapiens, Table 4
Outline: as §2

BPH-1 (UZ) = test: Cytostatic assay, BPH-1 (UZ); type: cell-based; conditions: Homo sapiens, Table 4
Outline: as §2

[13] = system: protein synthesis in CEM cells; test: Antimetabolic activity assay, [4,5-3H]leucine incorporation (protein synthesis), CEM; type: cell-based; conditions: Homo sapiens, CCRF-CEM, incorporation into TCA-insoluble material
Method: as §3

[14] = system: Raji, human B-lymphoma cells; test: Cytostatic assay, Raji; type: cell-based; conditions: Table 2
Outline: as §2

[15] = system: RNA synthesis in Raji cells; test: Antimetabolic activity assay, [5-3H]uridine incorporation (RNA synthesis), Raji; type: cell-based; conditions: Homo sapiens, incorporation into TCA-insoluble material
Method: [The procedure below names another cell line; the source lists this cell line under the same test.] as §3

[16] = system: BAEC aortic endothelial cells; test: Cytostatic assay, BAEC; type: cell-based, bovine; conditions: Bos taurus, Table 3
Outline: as §2

[17] = system: Caki-1 kidney carcinoma cells; test: Cytostatic assay, Caki-1; type: cell-based; conditions: Homo sapiens, Table 3
Outline: as §2

Huh-7 hepatoma cells = test: Cytostatic assay, Huh-7; type: cell-based; conditions: Homo sapiens, Table 4
Outline: as §2

Sup T1 cells = test: Cytostatic assay, Sup T1; type: cell-based; conditions: Homo sapiens, Table 2, read-out: Cytostatic activity (μM) Sup T 1
Outline: as §2

[18] = system: PC3 (rega) prostate cancer cells; test: Cytostatic assay, PC3 (rega); type: cell-based; conditions: Table 4
Outline: as §2

[19] = system: U87 CD4+/CXCR4+/CCR5+ glioma cells; test: Cytostatic assay, U87 CD4+/CXCR4+/CCR5+; type: cell-based; conditions: Homo sapiens, Glioma cell; Table 3
Method: as §1

[20] = system: HeLa cervix carcinoma cells; test: Cytostatic assay, HeLa; type: cell-based, human; conditions: Homo sapiens; Table 3; read-out: Cytostatic activity (μM) Hela
Outline: as §2

C8166 cells = test: Cytostatic assay, C8166; type: cell-based; conditions: Homo sapiens, Table 2
Outline: as §2

[21] = system: DNA synthesis in CEM cells; test: Antimetabolic activity assay, [CH3-3H]dThd incorporation (DNA synthesis), CEM; type: cell-based; conditions: Homo sapiens, CCRF-CEM, incorporation into TCA-insoluble material
Method: as §3

[22] = system: PNT1A (UZ) prostate cells; test: Cytostatic assay, PNT1A (UZ); type: cell-based; conditions: Homo sapiens, Table 4
Outline: as §2

[23] = system: Caki-2 kidney carcinoma cells; test: Cytostatic assay, Caki-2; type: cell-based; conditions: Homo sapiens, Table 3
Outline: as §2

MT-4 cells = test: Cytostatic assay, MT-4; type: cell-based; conditions: Homo sapiens, MT4; Table 2
Outline: as §2

[24] = system: HL60, human leukemia cells; test: Cytostatic assay, HL-60; type: cell-based; conditions: Table 2
Outline: as §2

PLC/PRF/5 hepatoma cells = test: Cytostatic assay, PLC/PRF/5; type: cell-based; conditions: Homo sapiens, Table 4
Outline: as §2

[25] = system: LNCaP (UZ) prostate cancer cells; test: Cytostatic assay, LNCaP (UZ); type: cell-based; conditions: Homo sapiens, Table 4
Outline: as §2

HUT-78 cells = test: Cytostatic assay, HUT-78; type: cell-based; conditions: Homo sapiens, HuT78; Table 2
Outline: as §2

[26] = system: PC-3 (UZ) prostate cancer cells; test: Cytostatic assay, PC-3 (UZ); type: cell-based; conditions: Table 4
Outline: as §2

U87 glioma cells = test: Cytostatic assay, U87; type: cell-based; conditions: Homo sapiens, U-87 MG; Table 3
Outline: as §2

[27] = system: THP-1, human monocytic cells; test: Cytostatic assay, THP-1; type: cell-based; conditions: Table 2
Outline: as §2

[28] = system: broad variety of tumor cell lines; test: Cytostatic assays, summary over the panel of cell lines (Tables 2-4); type: cell-based
Method: as §1

[29] = system: HEL embryonic lung fibroblast cells; test: Cytostatic assay, HEL; type: cell-based; conditions: Homo sapiens, Table 3
Outline: as §2

[30] = system: DU145 (UZ) prostate cancer cells; test: Cytostatic assay, DU145 (UZ); type: cell-based; conditions: Homo sapiens, DU-145; Table 4
Outline: as §2

[31] = Table 2, read-out: Cytostatic activity (μM) CEM
[32] = Homo sapiens, HuT78, range for the seven compounds, MT-4 and HUT-78 cells, read-out: IC50 range, cytostatic activity against MT-4 and HUT-78 cells
[33] = range for the seven compounds against the 5 tumor cell lines, read-out: IC50 range, cytostatic activity against CEM, Molt4/C8, Sup T1, MT-2 and C8166 cells

CCOC(=O)c1cc(CCc2ccc(OC)cc2)sc1N [TR532, 2-Amino-5-[2-(4-methoxy-phenyl)-ethyl]-thiophene-3-carboxylic acid ethyl ester]
IC50 [1]: 25 ± 5.7 µM | IC50 [2]: 41 ± 0.71 µM | IC50 [3]: 36 ± 5.7 µM | IC50 [4]: > 100 µM | IC50 [5]: 5.4 ± 3.3 µM | IC50 [6]: 43 ± 2.1 µM | IC50 [7]: 3 ± 0.1 µM | IC50 (Molt4/C8 cells): 0.34 µM | IC50 [8]: ≥ 100 µM | IC50 [9]: 27 ± 13 µM | IC50 (HepG2C3A hepatoma cells): 6.7 ± 0.35 µM | IC50 [10]: 43 ± 1.4 µM | IC50 (MT-2 cells): 1.7 ± 0.14 µM | IC50 (CEM cells; [31]): 1.9 ± 0.99 µM | IC50 [11]: 46 ± 6 µM | IC50 [12]: 15 ± 7.9 µM | IC50 (BPH-1 (UZ)): 43 ± 2.8 µM | IC50 [13]: 1.6 ± 1.1 µM | IC50 [14]: 39 ± 2.8 µM | IC50 [15]: > 100 µM | IC50 [16]: 23 ± 0.71 µM | IC50 [17]: 4.6 ± 2.1 µM | IC50 (Huh-7 hepatoma cells): 1.6 ± 0.14 µM | IC50 (Sup T1 cells): 1.5 ± 0.071 µM | IC50 [18]: 0.67 ± 0.14 µM | IC50 [19]: 37 ± 9.9 µM | IC50 [20]: 39 µM | IC50 (C8166 cells): 3.4 ± 0.071 µM | IC50 [21]: 11 ± 4 µM | IC50 [22]: 37 ± 9.9 µM | IC50 [23]: 66 ± 37 µM | IC50 (MT-4 cells): 8.5 ± 0.92 µM | IC50 [24]: 7 ± 8.7 µM | IC50 (PLC/PRF/5 hepatoma cells): 24 ± 2.1 µM | IC50 [25]: 0.34 ± 0.05 µM | IC50 (HUT-78 cells): 22 ± 9.2 µM | IC50 [26]: 1.1 ± 0.49 µM | IC50 (U87 glioma cells): 38 ± 1.4 µM | IC50 [27]: 23 ± 3.5 µM | IC50 [28, 32]: 8.5 to 60 µM | IC50 [28, 33]: 0.22 to 3.4 µM | IC50 [29]: 20 ± 8.5 µM | IC50 [30]: 8.4 ± 1.6 µM

COC(=O)c1cc(CCc2ccccc2OC)sc1N [TR567, 2-Amino-5-[2-(2-methoxy-phenyl)-ethyl]-thiophene-3-carboxylic acid methyl ester]
IC50 [1]: 23 ± 4.2 µM | IC50 [2]: 22 ± 15 µM | IC50 [3]: 22 ± 3.5 µM | IC50 [4]: 54 ± 8 µM | IC50 [5]: 7.6 ± 2.4 µM | IC50 [6]: 13 ± 0.71 µM | IC50 [7]: 2.6 ± 0.6 µM | IC50 (Molt4/C8 cells): 0.81 ± 0.49 µM | IC50 [8]: 45 ± 8 µM | IC50 [9]: 17 ± 7.8 µM | IC50 (HepG2C3A hepatoma cells): 8.6 ± 0.28 µM | IC50 [10]: 10 ± 0.85 µM | IC50 (MT-2 cells): 2.1 ± 0.071 µM | IC50 (CEM cells; Table 1a, read-out: IC50 μM (CEM)): 1.8 µM | IC50 (CEM cells; [31]): 1.8 ± 0.92 µM | IC50 [11]: 37 ± 0.71 µM | IC50 [12]: 5.7 ± 2.8 µM | IC50 (BPH-1 (UZ)): 39 ± 2.8 µM | IC50 [13]: 1.4 ± 0.9 µM | IC50 [14]: 19 ± 4.2 µM | IC50 [15]: 68 ± 8 µM | IC50 [16]: 20 ± 4.2 µM | IC50 [17]: 3.7 ± 1.8 µM | IC50 (Huh-7 hepatoma cells): 3.4 ± 1.2 µM | IC50 (Sup T1 cells): 1.5 µM | IC50 [18]: 0.71 ± 0.28 µM | IC50 [19]: 32 ± 2.1 µM | IC50 [20]: 17 ± 2.1 µM | IC50 (C8166 cells): 3 ± 0.21 µM | IC50 [21]: 6.4 ± 4.1 µM | IC50 [22]: 17 ± 2.8 µM | IC50 [23]: 4.5 ± 1.9 µM | IC50 (MT-4 cells): 14 ± 2.8 µM | IC50 [24]: 4 ± 3.3 µM | IC50 (PLC/PRF/5 hepatoma cells): 18 ± 4.2 µM | IC50 [25]: 0.43 ± 0.14 µM | IC50 (HUT-78 cells): 13 ± 4.2 µM | IC50 [26]: 1.4 ± 0.071 µM | IC50 (U87 glioma cells): 38 µM | IC50 [27]: 13 ± 1.4 µM | IC50 [28, 32]: 8.5 to 60 µM | IC50 [28, 33]: 0.22 to 3.4 µM | IC50 [29]: 20 ± 7.8 µM | IC50 [30]: 11 ± 7 µM

From patent publication US9278958B2, “Anti-cancer compounds” (KATHOLIEKE UNIVERSITEIT LEUVEN, priority 2012, dated 2016)
